Structures are written as SMILES. *1 amine or outer side, *2 acyl side, *3 side chain or, on linkers, in order; H or OH if unused. Where a SMILES comes first, the peptide text is derived from it. Bridges are numbered along the chain shown (N, C = ends). [ ]: non-standard residue; d: D form. ξ: configuration not given here. Trp(1-CH2COOH) = N[C@@H](Cc1cn(CC(=O)O)c2ccccc12)C(=O)O; Phe(3,4,5-F3) = N[C@@H](Cc1cc(F)c(F)c(F)c1)C(=O)O; NMePhe(4-F) = CN[C@@H](Cc1ccc(F)cc1)C(=O)O; NMeW = CN[C@@H](Cc1c[nH]c2ccccc12)C(=O)O; Phe(4-F) = N[C@@H](Cc1ccc(F)cc1)C(=O)O; d(cisHyp) = O=C(O)[C@H]1C[C@@H](O)CN1; Bta = N[C@@H](Cc1csc2ccccc12)C(=O)O; Hyp = O=C(O)[C@@H]1C[C@@H](O)CN1; NMeF = CN[C@@H](Cc1ccccc1)C(=O)O; X1 = O=C([C@H]1COCCN1[*:1])[*:2]; NMeNle = CCCC[C@H](NC)C(=O)O; Pip = O=C(O)[C@@H]1CCCCN1; dPip = O=C(O)[C@H]1CCCCN1; hSer = N[C@@H](CCO)C(=O)O; NMeA = CN[C@@H](C)C(=O)O; Orn = NCCC[C@H](N)C(=O)O; Dab = NCC[C@H](N)C(=O)O; Dap = NC[C@H](N)C(=O)O; ξP = O=C(O)C1CCCN1; ξC = NC(CS)C(=O)O

For the experiment, the target named is T1, Human PD-L1/PD-1 (Homo sapiens, UniProt Q9NZQ7).
T1 construct: TVMV protease cleavage site (C); made in house; host or cells: HEK293T cells
T1 sequence (Q9NZQ7 with tags, fused parts or gaps): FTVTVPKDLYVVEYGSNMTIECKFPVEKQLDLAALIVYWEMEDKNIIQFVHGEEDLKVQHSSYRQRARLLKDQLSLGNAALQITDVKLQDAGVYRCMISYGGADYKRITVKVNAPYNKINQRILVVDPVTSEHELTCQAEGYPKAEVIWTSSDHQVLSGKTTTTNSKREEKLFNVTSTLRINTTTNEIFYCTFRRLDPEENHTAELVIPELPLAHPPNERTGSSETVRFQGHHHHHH
Briefly: HTRF Human PD-L1/PD-1 binding assay (PD-1-Ig/PD-L1-His). The conditions noted are these: PD-L1-His 10 nM, PD-1-Ig 20 nM; class symbol; read-out: HTRF Human PD-L1/PD-1 Binding Assay IC50 Range. The procedure, abridged: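 HTRF read-out (665/620 nm ratio) after 30 min equilibration with Eu-cryptate anti-Ig mAb (1 nM) and APC anti-His mAb (20 nM). Peptides preincubated 15 min with PD-L1-His (10 nM), then PD-1-Ig (20 nM) added for 15 min.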
On to `CCCC[C@H]1C(=O)N2CCC[C@@H]2C(=O)N[C@@H](CC(=O)O)C(=O)N[C@@H](C(C)C)C(=O)N(C)[C@@H](Cc2ccccc2)C(=O)N[C@@H](Cc2ccc(O)cc2)C(=O)N2CCC[C@@H]2C(=O)N[C@@H](Cc2c[nH]c3ccccc23)C(=O)N[C@@H](Cc2ccc(O)cc2)C(=O)N[C@@H](CCC(=O)O)C(=O)N[C@H](C(=O)NCC(N)=O)CSCC(=O)N[C@@H](Cc2cc(F)c(F)c(F)c2)C(=O)N(C)[C@@H](Cc2ccccc2)C(=O)N1C` [Example 10097] ({CH2CO}-[Phe(3,4,5-F3)][NMeF][NMeNle][dP]DV[NMeF]Y[dP]WYECG-NH2; thioether N-13), for which the IC50 was 1 to 9.9 nM. To `CCCC[C@H]1C(=O)N2CCC[C@@H]2C(=O)N[C@@H](CN)C(=O)N[C@@H](C(C)C)C(=O)N(C)[C@@H](Cc2ccccc2)C(=O)N[C@@H](CCC(=O)O)C(=O)N2CCCC[C@@H]2C(=O)N[C@@H](Cc2c[nH]c3ccccc23)C(=O)N[C@@H](Cc2ccc(O)cc2)C(=O)N[C@@H](CC(C)C)C(=O)N[C@H](C(=O)NCC(N)=O)CSCC(=O)N[C@@H](Cc2cc(F)c(F)c(F)c2)C(=O)N(C)[C@@H](Cc2ccc(F)cc2)C(=O)N1C` [Example 10578] ({CH2CO}-[Phe(3,4,5-F3)][NMePhe(4-F)][NMeNle][dP][Dap]V[NMeF]E[dPip]WYLCG-NH2; thioether N-13) belongs 1 to 9.9 nM. To `CCCC[C@H]1C(=O)N(C)[C@@H](CCCC)C(=O)N[C@@H](CC(C)C)C(=O)N[C@H](C(=O)NCC(N)=O)CSCC(=O)N[C@@H](Cc2ccc(O)cc2)C(=O)N(C)[C@@H](C)C(=O)N[C@@H](CC(=O)O)C(=O)N2CCC[C@H]2C(=O)N[C@@H](Cc2c[nH]cn2)C(=O)N[C@@H](CCCCNC(C)=O)C(=O)N2C[C@H](O)C[C@H]2C(=O)N[C@@H](Cc2c[nH]c3ccccc23)C(=O)N[C@@H](CCCCN)C(=O)N[C@@H](Cc2c[nH]c3ccccc23)C(=O)N1C` [Example 5202] ({CH2CO}-Y[NMeA]DPHK(Ac)[Hyp]WKW[NMeNle][NMeNle]LCG-NH2; thioether N-14) belongs 1 to 9.9 nM; to `CCCC[C@H]1C(=O)N(C)[C@@H](CCCC)C(=O)N[C@@H](CCC(=O)O)C(=O)N[C@H](C(=O)NCC(N)=O)CSCC(=O)N[C@@H](Cc2ccc(O)cc2)C(=O)N(C)[C@@H](C)C(=O)N[C@@H](CC(N)=O)C(=O)N2CCC[C@H]2C(=O)N[C@@H](CN)C(=O)N[C@@H](CC(C)C)C(=O)N2C[C@H](O)C[C@H]2C(=O)N[C@@H](Cc2c[nH]c3ccccc23)C(=O)N[C@@H](CCC(=O)O)C(=O)N[C@@H](Cc2c[nH]c3ccccc23)C(=O)N1C` [Example 5232] ({CH2CO}-Y[NMeA]NP[Dap]L[Hyp]WEW[NMeNle][NMeNle]ECG-NH2; thioether N-14), 1 to 9.9 nM. To `CCCC[C@H]1C(=O)N2C[C@H](O)C[C@@H]2C(=O)N[C@@H](CC(=O)O)C(=O)N[C@@H](C(C)C)C(=O)N(C)[C@@H](Cc2ccccc2)C(=O)N[C@@H](CC(=O)O)C(=O)N2C[C@H](O)C[C@@H]2C(=O)N[C@@H](Cc2c[nH]c3ccccc23)C(=O)N[C@@H](Cc2ccc(O)cc2)C(=O)N[C@@H](CCC(=O)O)C(=O)N[C@H](C(=O)NCC(N)=O)CSCC(=O)N[C@@H](Cc2cc(F)c(F)c(F)c2)C(=O)N(C)[C@@H](Cc2ccccc2)C(=O)N1C` [Example 9349] ({CH2CO}-[Phe(3,4,5-F3)][NMeF][NMeNle][d(cisHyp)]DV[NMeF]D[d(cisHyp)]WYECG-NH2; thioether N-13) belongs 10 to 99.9 nM; to `CCCC[C@H]1C(=O)N(C)[C@@H](CCCC)C(=O)N[C@@H](CC(C)C)C(=O)N[C@H](C(=O)NCC(N)=O)CSCC(=O)N[C@@H](Cc2ccc(O)cc2)C(=O)N2CCCC[C@H]2C(=O)N[C@@H](CC(=O)O)C(=O)N2CCC[C@H]2C(=O)N[C@@H](Cc2cnc[nH]2)C(=O)N[C@@H](CCC(N)=O)C(=O)N2C[C@H](O)C[C@H]2C(=O)N[C@@H](Cc2c[nH]c3ccccc23)C(=O)N[C@@H](CO)C(=O)N[C@@H](Cc2csc3ccccc23)C(=O)N1C` [Example 1511] ({CH2CO}-Y[Pip]DPHQ[Hyp]WS[Bta][NMeNle][NMeNle]LCG-NH2; thioether N-14), 1 to 9.9 nM. Turning to `CCCC[C@H]1C(=O)N(C)[C@@H](CCCC)C(=O)N[C@@H](CCC(=O)O)C(=O)NC(C(=O)NCC(N)=O)CSCC(=O)N[C@@H](Cc2ccc(O)cc2)C(=O)N(C)[C@@H](C)C(=O)N[C@@H](CC(N)=O)C(=O)N2CCC[C@H]2C(=O)N[C@@H](Cc2c[nH]cn2)C(=O)N[C@@H](CC(N)=O)C(=O)N2CCC[C@H]2C(=O)N[C@@H](Cc2c[nH]c3ccccc23)C(=O)N[C@@H](CO)C(=O)N[C@@H](Cc2c[nH]c3ccccc23)C(=O)N1C` (stereo partly drawn) [Example 9170] ({CH2CO}-Y[NMeA]NPHNPWSW[NMeNle][NMeNle]E[ξC]G-NH2; thioether N-14), the IC50 was 10 to 99.9 nM. Next, `CCCC[C@H]1C(=O)N[C@@H](CN)C(=O)N[C@H](C(=O)NCC(N)=O)CSCC(=O)N[C@@H](Cc2ccc(O)cc2)C(=O)N(C)[C@@H](C)C(=O)N[C@@H](CC(=O)O)C(=O)N2CCC[C@H]2C(=O)N[C@@H](Cc2c[nH]cn2)C(=O)N[C@@H](CCC(=O)O)C(=O)N2C[C@H](O)C[C@H]2C(=O)N[C@@H](Cc2c[nH]c3ccccc23)C(=O)N[C@@H](CCN)C(=O)N[C@@H](Cc2c[nH]c3ccccc23)C(=O)N(C)[C@@H](Cc2c[nH]c3ccccc23)C(=O)N1C` [Example 5229] ({CH2CO}-Y[NMeA]DPHE[Hyp]W[Dab]W[NMeW][NMeNle][Dap]CG-NH2; thioether N-14): 1 to 9.9 nM. For `CCCC[C@H]1C(=O)N(C)[C@@H](CCCC)C(=O)N[C@@H](CCC(=O)O)C(=O)N[C@H](C(=O)NCC(N)=O)CSCC(=O)N[C@@H](Cc2ccc(O)cc2)C(=O)N(C)[C@@H](C)C(=O)N[C@@H](CC(N)=O)C(=O)N2CCCC2C(=O)N[C@@H](CN)C(=O)N[C@@H](CC(C)C)C(=O)N2C[C@H](O)C[C@H]2C(=O)N[C@@H](Cc2c[nH]c3ccccc23)C(=O)N[C@@H](CCN)C(=O)N[C@@H](Cc2cn(CC(=O)O)c3ccccc23)C(=O)N1C` (stereo partly drawn) [Example 6344] ({CH2CO}-Y[NMeA]N[ξP][Dap]L[Hyp]W[Dab][Trp(1-CH2COOH)][NMeNle][NMeNle]ECG-NH2; thioether N-14), the IC50 was in the range of 1 to 9.9 nM.

Consider `CCCC[C@H]1C(=O)N2CCC[C@@H]2C(=O)N[C@@H](CC(=O)O)C(=O)N[C@@H](C(C)C)C(=O)N(C)[C@@H](Cc2ccccc2)C(=O)N[C@@H](Cc2ccc(O)cc2)C(=O)N2CCOC[C@@H]2C(=O)N[C@@H](Cc2c[nH]c3ccccc23)C(=O)N[C@@H](Cc2ccc(O)cc2)C(=O)N[C@@H](CCOC)C(=O)N[C@H](C(=O)NCC(N)=O)CSCC(=O)N[C@@H](Cc2cc(F)c(F)c(F)c2)C(=O)N(C)[C@@H](Cc2ccccc2)C(=O)N1C` [Example 10187] ({CH2CO}-[Phe(3,4,5-F3)][NMeF][NMeNle][dP]DV[NMeF]Y[X1]WY[hSer](Me)CG-NH2; thioether N-13), for which the IC50 lay within 1 to 9.9 nM.

Consider `CCCC[C@H]1C(=O)N[C@@H](CCC(N)=O)C(=O)N2CCC[C@@H]2C(=O)N[C@@H](Cc2c[nH]c3ccccc23)C(=O)N[C@@H](Cc2ccc(O)cc2)C(=O)N[C@@H](CC(C)C)C(=O)N[C@H](C(=O)NCC(N)=O)CSCC(=O)N[C@@H](Cc2ccc(F)cc2)C(=O)N(C)[C@@H](Cc2ccccc2)C(=O)N(C)[C@@H](CCCC)C(=O)N2CCC[C@@H]2C(=O)N[C@@H](CC(=O)O)C(=O)N[C@@H](C(C)C)C(=O)N1C` [Example 9215] ({CH2CO}-[Phe(4-F)][NMeF][NMeNle][dP]DV[NMeNle]Q[dP]WYLCG-NH2; thioether N-13), for which the IC50 lay in the range of 10 to 99.9 nM. Next, `CCCC[C@H]1C(=O)N[C@@H](CC(N)=O)C(=O)N2CCC[C@H]2C(=O)N[C@@H](CO)C(=O)N[C@@H](CCO)C(=O)N2CCC[C@H]2C(=O)N[C@@H](Cc2c[nH]c3ccccc23)C(=O)N[C@@H](CO)C(=O)N[C@@H](Cc2c[nH]c3ccccc23)C(=O)N(C)[C@@H](C)C(=O)N(C)[C@@H](C)C(=O)N[C@@H](CCCN)C(=O)NC(C(=O)NCC(N)=O)CSCC(=O)N[C@@H](Cc2ccc(O)cc2)C(=O)N1C` (stereo partly drawn) [Example 10210] ({CH2CO}-Y[NMeNle]NPS[hSer]PWSW[NMeA][NMeA][Orn][ξC]G-NH2; thioether N-14): 1000 to 10000 nM; `CCCC[C@H]1C(=O)N(C)[C@@H](CCCC)C(=O)N[C@@H](CCC(=O)O)C(=O)NC(C(=O)NCC(N)=O)CSCC(=O)N[C@@H](Cc2ccc(O)cc2)C(=O)N(C)[C@@H](C)C(=O)N[C@@H](CC(N)=O)C(=O)N2CCC[C@H]2C(=O)N[C@@H](Cc2c[nH]cn2)C(=O)N[C@@H](CC(N)=O)C(=O)N2C[C@H](O)C[C@H]2C(=O)N[C@@H](Cc2c[nH]c3ccccc23)C(=O)N[C@@H](CCN)C(=O)N[C@@H](Cc2c[nH]c3ccccc23)C(=O)N1C` (stereo partly drawn) [Example 9183] ({CH2CO}-Y[NMeA]NPHN[Hyp]W[Dab]W[NMeNle][NMeNle]E[ξC]G-NH2; thioether N-14): 1 to 9.9 nM; `CCCC[C@H]1C(=O)N(C)CC(=O)N[C@@H](CC(=O)O)C(=O)NC(C(C)c2ccccc2)C(=O)N(C)[C@@H](Cc2ccccc2)C(=O)N[C@@H](Cc2ccc(O)cc2)C(=O)N(C)CC(=O)N[C@@H](Cc2c[nH]c3ccccc23)C(=O)N[C@@H](Cc2ccc(O)cc2)C(=O)N[C@@H](CC(C)C)C(=O)N[C@H](C(=O)NCC(N)=O)CSCC(=O)N[C@@H](Cc2ccccc2)C(=O)N(C)[C@@H](Cc2ccccc2)C(=O)N1C` (single isomer, unassigned) [Example 3230-B]: 100 to 990 nM. For the compound `CCCC[C@H]1C(=O)N(C)[C@@H](CCCC)C(=O)N[C@@H](CC(C)C)C(=O)N[C@H](C(=O)NCC(N)=O)CSCC(=O)N[C@@H](Cc2ccc(O)cc2)C(=O)N2CCCC[C@H]2C(=O)N[C@@H](CC(N)=O)C(=O)N2CCC[C@H]2C(=O)N[C@@H](CN)C(=O)N[C@@H](CCC(=O)O)C(=O)N2C[C@H](O)C[C@H]2C(=O)N[C@@H](Cc2c[nH]c3ccccc23)C(=O)N[C@@H](CCN)C(=O)N[C@@H](Cc2cn(CC(=O)O)c3ccccc23)C(=O)N1C` [Example 1299] ({CH2CO}-Y[Pip]NP[Dap]E[Hyp]W[Dab][Trp(1-CH2COOH)][NMeNle][NMeNle]LCG-NH2; thioether N-14), the IC50 was in the range of 1 to 9.9 nM.
